Data taken from patent US12077503B2, “Substituted cyclic amides and their use as herbicides” (FMC CORPORATION, priority 2015, dated 2024).

How the values were obtained:
Type in all cases: in vivo
[1] = test system: barnyardgrass (Echinochloa crus-galli); test: Test G Pre-Emergence Protocol; conditions: Echinochloa crus-galli, pre-emergence, 312 h, evaluated after 13 days; for pest or weed control at 15.625 g/ha: 15.625 g ai/ha, read-out: Barnyard grass damage rating (100=total damage to plant; 0=no damage to plant); for pest or weed control at 62.5 g/ha: 62.5 g ai/ha, 100=total damage to plant, 0=no damage to plant, read-out: plant damage rating, Barnyardgrass; for pest or weed control at 250 g/ha: 250 g ai/ha, read-out: Barnyardgrass damage rating (100=total damage to plant; 0=no damage to plant)
Procedure, shortened: (§1)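 Pots of seeds in standard soil were grown for one day in a glasshouse (24/16 °C day/night, 14 h light, 65% humidity), then sprayed with compound in acetone/water 50:50 with 0.5% Tween 20 at 15.625, 62.5 or 250 g/ha. Damage was scored after 13 days on a 0 (none) to 100 (total) scale.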

corn (Zea mays) [2] = test: Test G Pre-Emergence Protocol; conditions: Zea mays, pre-emergence, 312 h, evaluated after 13 days; for plant injury at 15.625 g/ha: 15.625 g ai/ha; for plant injury at 15.625 g/ha / plant injury at 250 g/ha: read-out: Corn damage rating (100=total damage to plant; 0=no damage to plant); for plant injury at 62.5 g/ha: 62.5 g ai/ha, 100=total damage to plant, 0=no damage to plant, read-out: plant damage rating, Corn; for plant injury at 250 g/ha: 250 g ai/ha
Procedure, shortened: as §1

[3] = test system: giant foxtail (Setaria faberi); test: Test G Pre-Emergence Protocol; conditions: Setaria faberi, pre-emergence, 312 h, evaluated after 13 days; for pest or weed control at 15.625 g/ha: 15.625 g ai/ha; for pest or weed control at 15.625 g/ha / pest or weed control at 250 g/ha: read-out: Foxtail, Giant damage rating (100=total damage to plant; 0=no damage to plant); for pest or weed control at 62.5 g/ha: 62.5 g ai/ha, 100=total damage to plant, 0=no damage to plant, read-out: plant damage rating, Foxtail, Giant; for pest or weed control at 250 g/ha: 250 g ai/ha
Procedure, shortened: as §1

[4] = test system: ivy-leaved morning glory (Ipomoea hederacea); test: Test G Pre-Emergence Protocol; conditions: Ipomoea, pre-emergence, 312 h, evaluated after 13 days; for pest or weed control at 15.625 g/ha: 15.625 g ai/ha, read-out: Morning-glory, Ivy-leaved damage rating (100=total damage to plant; 0=no damage to plant); for pest or weed control at 62.5 g/ha: 62.5 g ai/ha, 100=total damage to plant, 0=no damage to plant, read-out: plant damage rating, Morningglory, Ivy-leaved; for pest or weed control at 250 g/ha: 250 g ai/ha, read-out: Morningglory, Ivy-leaved damage rating (100=total damage to plant; 0=no damage to plant)
Procedure, shortened: as §1

[5] = test system: redroot pigweed (Amaranthus retroflexus); test: Test G Pre-Emergence Protocol; conditions: Amaranthus retroflexus, pre-emergence, 312 h, evaluated after 13 days; for pest or weed control at 15.625 g/ha: 15.625 g ai/ha; for pest or weed control at 15.625 g/ha / pest or weed control at 250 g/ha: read-out: Pigweed, Redroot damage rating (100=total damage to plant; 0=no damage to plant); for pest or weed control at 62.5 g/ha: 62.5 g ai/ha, 100=total damage to plant, 0=no damage to plant, read-out: plant damage rating, Pigweed, Redroot; for pest or weed control at 250 g/ha: 250 g ai/ha
Procedure, shortened: as §1

[6] = test system: velvetleaf (Abutilon theophrasti); test: Test G Pre-Emergence Protocol; conditions: Abutilon theophrasti, pre-emergence, 312 h, evaluated after 13 days; for pest or weed control at 15.625 g/ha: 15.625 g ai/ha; for pest or weed control at 15.625 g/ha / pest or weed control at 250 g/ha: read-out: Velvetleaf damage rating (100=total damage to plant; 0=no damage to plant); for pest or weed control at 62.5 g/ha: 62.5 g ai/ha, 100=total damage to plant, 0=no damage to plant, read-out: plant damage rating, Velvetleaf; for pest or weed control at 250 g/ha: 250 g ai/ha
Procedure, shortened: as §1

[7] = test system: barnyardgrass (Echinochloa crus-galli); test: Test G Post-Emergence Protocol; conditions: Echinochloa crus-galli, post-emergence, 312 h; for pest or weed control at 15.625 g/ha: 15.625 g ai/ha, evaluated after 13 days (100=total damage to plant; 0=no damage to plant), read-out: Barnyardgrass damage rating; for pest or weed control at 62.5 g/ha: 62.5 g ai/ha, read-out: Barnyardgrass damage rating (100=total damage to plant; 0=no damage to plant); for pest or weed control at 62.5 g/ha / pest or weed control at 250 g/ha: evaluated after 13 days; for pest or weed control at 250 g/ha: 250 g ai/ha, read-out: damage to plant, Barnyardgrass (100=total damage to plant; 0=no damage to plant)
Procedure, shortened: (§2)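 Seedlings grown 8 days in soil in a glasshouse (24/16 °C day/night, 14 h light, 65% humidity) were sprayed post-emergence with compound in acetone/water 50:50 plus 0.5% Tween 20 at 15.625, 62.5 or 250 g/ha. Damage was scored after 13 days on a 0–100 scale (100 = total damage).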

corn (Zea mays) [8] = test: Test G Post-Emergence Protocol; conditions: Zea mays, post-emergence, 312 h; for plant injury at 15.625 g/ha: 15.625 g ai/ha, evaluated after 13 days (100=total damage to plant; 0=no damage to plant), read-out: Corn damage rating; for plant injury at 62.5 g/ha: 62.5 g ai/ha, read-out: Corn damage rating (100=total damage to plant; 0=no damage to plant); for plant injury at 62.5 g/ha / plant injury at 250 g/ha: evaluated after 13 days; for plant injury at 250 g/ha: 250 g ai/ha, read-out: damage to plant, Corn (100=total damage to plant; 0=no damage to plant)
Procedure, shortened: as §2

[9] = test system: giant foxtail (Setaria faberi); test: Test G Post-Emergence Protocol; conditions: Setaria faberi, post-emergence, 312 h; for pest or weed control at 15.625 g/ha: 15.625 g ai/ha, evaluated after 13 days (100=total damage to plant; 0=no damage to plant), read-out: Foxtail, Giant damage rating; for pest or weed control at 62.5 g/ha: 62.5 g ai/ha, read-out: Foxtail, Giant damage rating (100=total damage to plant; 0=no damage to plant); for pest or weed control at 62.5 g/ha / pest or weed control at 250 g/ha: evaluated after 13 days; for pest or weed control at 250 g/ha: 250 g ai/ha, read-out: damage to plant, Foxtail, Giant (100=total damage to plant; 0=no damage to plant)
Procedure, shortened: as §2

[10] = test system: ivy-leaved morning glory (Ipomoea hederacea); test: Test G Post-Emergence Protocol; conditions: Ipomoea, post-emergence, 312 h; for pest or weed control at 15.625 g/ha: 15.625 g ai/ha, evaluated after 13 days (100=total damage to plant; 0=no damage to plant), read-out: Morningglory, Ivy-leaved damage rating; for pest or weed control at 62.5 g/ha: 62.5 g ai/ha, read-out: Morningglory, Ivy-leaved damage rating (100=total damage to plant; 0=no damage to plant); for pest or weed control at 62.5 g/ha / pest or weed control at 250 g/ha: evaluated after 13 days; for pest or weed control at 250 g/ha: 250 g ai/ha, read-out: damage to plant, Morningglory, Ivy-leaved (100=total damage to plant; 0=no damage to plant)
Procedure, shortened: as §2

[11] = test system: redroot pigweed (Amaranthus retroflexus); test: Test G Post-Emergence Protocol; conditions: Amaranthus retroflexus, post-emergence, 312 h; for pest or weed control at 15.625 g/ha: 15.625 g ai/ha, evaluated after 13 days (100=total damage to plant; 0=no damage to plant), read-out: Pigweed, Redroot damage rating; for pest or weed control at 62.5 g/ha: 62.5 g ai/ha, read-out: Pigweed, Redroot damage rating (100=total damage to plant; 0=no damage to plant); for pest or weed control at 62.5 g/ha / pest or weed control at 250 g/ha: evaluated after 13 days; for pest or weed control at 250 g/ha: 250 g ai/ha, read-out: damage to plant, Pigweed, Redroot (100=total damage to plant; 0=no damage to plant)
Procedure, shortened: as §2

[12] = test system: velvetleaf (Abutilon theophrasti); test: Test G Post-Emergence Protocol; conditions: Abutilon theophrasti, post-emergence, 312 h; for pest or weed control at 15.625 g/ha: 15.625 g ai/ha, evaluated after 13 days (100=total damage to plant; 0=no damage to plant), read-out: Velvetleaf damage rating; for pest or weed control at 62.5 g/ha: 62.5 g ai/ha, read-out: Velvetleaf damage rating (100=total damage to plant; 0=no damage to plant); for pest or weed control at 62.5 g/ha / pest or weed control at 250 g/ha: evaluated after 13 days; for pest or weed control at 250 g/ha: 250 g ai/ha, read-out: damage to plant, Velvetleaf (100=total damage to plant; 0=no damage to plant)
Procedure, shortened: as §2

| Structure (SMILES) | pest or weed control at 15.625 g/ha [1] [%] | pest or weed control at 62.5 g/ha [1] [%] | pest or weed control at 250 g/ha [1] [%] | plant injury at 15.625 g/ha (corn (Zea mays) [2]) [%] | plant injury at 62.5 g/ha (corn (Zea mays) [2]) [%] | plant injury at 250 g/ha (corn (Zea mays) [2]) [%] | pest or weed control at 15.625 g/ha [3] [%] | pest or weed control at 62.5 g/ha [3] [%] | pest or weed control at 250 g/ha [3] [%] | pest or weed control at 15.625 g/ha [4] [%] | pest or weed control at 62.5 g/ha [4] [%] | pest or weed control at 250 g/ha [4] [%] | pest or weed control at 15.625 g/ha [5] [%] | pest or weed control at 62.5 g/ha [5] [%] | pest or weed control at 250 g/ha [5] [%] | pest or weed control at 15.625 g/ha [6] [%] | pest or weed control at 62.5 g/ha [6] [%] | pest or weed control at 250 g/ha [6] [%] | pest or weed control at 15.625 g/ha [7] [%] | pest or weed control at 62.5 g/ha [7] [%] | further results |
| --- | --- | --- | --- | --- | --- | --- | --- | --- | --- | --- | --- | --- | --- | --- | --- | --- | --- | --- | --- | --- | --- |
| CN1C[C@@H](c2ccc(C(F)(F)F)cc2)[C@H](C(=O)Nc2cc(F)ncn2)C1=O (racemic) [Compound 1509] | 0 | 0 | 0 | 0 | 0 | 0 | 0 | 0 | 0 | 0 | 0 | 0 | 0 | 0 | 0 | 0 | 0 | 0 | 0 | 0 | pest or weed control at 250 g/ha [7]: 0%; plant injury at 15.625 g/ha (corn (Zea mays) [8]): 0%; plant injury at 62.5 g/ha (corn (Zea mays) [8]): 0%; plant injury at 250 g/ha (corn (Zea mays) [8]): 0%; pest or weed control at 15.625 g/ha [9]: 0%; pest or weed control at 62.5 g/ha [9]: 0%; pest or weed control at 250 g/ha [9]: 0%; pest or weed control at 15.625 g/ha [10]: 0%; pest or weed control at 62.5 g/ha [10]: 0%; pest or weed control at 250 g/ha [10]: 0%; pest or weed control at 15.625 g/ha [11]: 0%; pest or weed control at 62.5 g/ha [11]: 0%; pest or weed control at 250 g/ha [11]: 0%; pest or weed control at 15.625 g/ha [12]: 0%; pest or weed control at 62.5 g/ha [12]: 0%; pest or weed control at 250 g/ha [12]: 0% |
| Cc1cc([C@@H]2CN(C)C(=O)[C@H]2C(=O)Nc2cccc(F)c2F)cnc1Cl (racemic) [Compound 1493] | 40 | 90 | 90 | 0 | 0 | 70 | 60 | 80 | 90 | 0 | 0 | 10 | 0 | 0 | 0 | 0 | 0 | 0 | 40 | 70 | pest or weed control at 250 g/ha [7]: 80%; plant injury at 15.625 g/ha (corn (Zea mays) [8]): 10%; plant injury at 62.5 g/ha (corn (Zea mays) [8]): 40%; plant injury at 250 g/ha (corn (Zea mays) [8]): 80%; pest or weed control at 15.625 g/ha [9]: 40%; pest or weed control at 62.5 g/ha [9]: 60%; pest or weed control at 250 g/ha [9]: 60%; pest or weed control at 15.625 g/ha [10]: 0%; pest or weed control at 62.5 g/ha [10]: 0%; pest or weed control at 250 g/ha [10]: 0%; pest or weed control at 15.625 g/ha [11]: 0%; pest or weed control at 62.5 g/ha [11]: 0%; pest or weed control at 250 g/ha [11]: 0%; pest or weed control at 15.625 g/ha [12]: 0%; pest or weed control at 62.5 g/ha [12]: 0%; pest or weed control at 250 g/ha [12]: 0% |
